Measurements taken from PubChem BioAssay (NCI).
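Grown in 96-well plates, cells were treated for 48 hours with each compound at five concentrations. Insufficient inhibition: endpoint recorded as highest concentration tested. Abbreviation: GI50, concentration required for 50% inhibition of growth. TGI is the concentration that stops growth completely.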

How the values were obtained:
Assay in all cases: NCI anticancer screen, dose series, 48 h
786-0 renal = tested on: 786-0 renal
A498 renal = tested on: A498 renal
A549 NSCLC = tested on: A549 NSCLC
ACHN renal = tested on: ACHN renal
BT-549 breast = tested on: BT-549 breast
CAKI-1 renal = tested on: CAKI-1 renal
CCRF-CEM leukemia = tested on: CCRF-CEM leukemia
COLO 205 colon = tested on: COLO 205 colon
DU-145 prostate = tested on: DU-145 prostate
EKVX NSCLC = tested on: EKVX NSCLC
HCC-2998 colon = tested on: HCC-2998 colon
HCT-116 colon = tested on: HCT-116 colon
HCT-15 colon = tested on: HCT-15 colon
HL-60(TB) leukemia = tested on: HL-60(TB) leukemia
HOP-62 NSCLC = tested on: HOP-62 NSCLC
HOP-92 NSCLC = tested on: HOP-92 NSCLC
HS 578T breast = tested on: HS 578T breast
HT29 colon = tested on: HT29 colon
IGROV1 ovarian = tested on: IGROV1 ovarian
K-562 leukemia = tested on: K-562 leukemia
KM12 colon = tested on: KM12 colon
LOX IMVI melanoma = tested on: LOX IMVI melanoma
M14 melanoma = tested on: M14 melanoma
MALME-3M melanoma = tested on: MALME-3M melanoma
MCF7 breast = tested on: MCF7 breast
MDA-MB-231 breast = tested on: MDA-MB-231 breast
MDA-MB-435 = tested on: MDA-MB-435
MDA-MB-468 breast = tested on: MDA-MB-468 breast
MOLT-4 leukemia = tested on: MOLT-4 leukemia
NCI-H226 lung = tested on: NCI-H226 lung
NCI-H23 lung = tested on: NCI-H23 lung
NCI-H460 lung = tested on: NCI-H460 lung
NCI-H522 lung = tested on: NCI-H522 lung
OVCAR-3 ovarian = tested on: OVCAR-3 ovarian
OVCAR-4 ovarian = tested on: OVCAR-4 ovarian
OVCAR-5 ovarian = tested on: OVCAR-5 ovarian
OVCAR-8 ovarian = tested on: OVCAR-8 ovarian
PC-3 prostate = tested on: PC-3 prostate
RPMI-8226 leukemia = tested on: RPMI-8226 leukemia
RXF 393 renal = tested on: RXF 393 renal
SF-268 CNS = tested on: SF-268 CNS
SF-295 CNS = tested on: SF-295 CNS
SF-539 CNS = tested on: SF-539 CNS
SK-MEL-28 melanoma = tested on: SK-MEL-28 melanoma
SK-MEL-5 melanoma = tested on: SK-MEL-5 melanoma
SK-OV-3 ovarian = tested on: SK-OV-3 ovarian
SN12C renal = tested on: SN12C renal
SNB-19 CNS = tested on: SNB-19 CNS
SNB-75 CNS = tested on: SNB-75 CNS
SR leukemia = tested on: SR leukemia
SW-620 colon = tested on: SW-620 colon
T-47D breast = tested on: T-47D breast
TK-10 renal = tested on: TK-10 renal
U251 CNS = tested on: U251 CNS
UACC-257 melanoma = tested on: UACC-257 melanoma
UACC-62 melanoma = tested on: UACC-62 melanoma
UO-31 renal = tested on: UO-31 renal

## Cc1ccc(C(SCCNCc2cc(N(C)C)ccn2)(c2ccccc2)c2ccccc2)cc1
786-0 renal
  GI50: 1.88 µM
  TGI: 3.83 µM
A498 renal
  GI50: 13.4 µM
  TGI: 27 µM
A549 NSCLC
  GI50: 4.13 µM
  TGI: 18 µM
ACHN renal
  GI50: 4.72 µM
  TGI: 17.3 µM
BT-549 breast
  GI50: 2.94 µM
  TGI: 7.87 µM
CAKI-1 renal
  GI50: 3.28 µM
  TGI: 15.5 µM
CCRF-CEM leukemia
  GI50: 2.03 µM
  TGI: 8.53 µM
COLO 205 colon
  GI50: 1.7 µM
  TGI: 3.17 µM
DU-145 prostate
  GI50: 3.54 µM
  TGI: 12.5 µM
EKVX NSCLC
  GI50: 1.49 µM
  TGI: 3.9 µM
HCC-2998 colon
  GI50: 1.42 µM
  TGI: 2.75 µM
HCT-116 colon
  GI50: 1.23 µM
  TGI: 5.22 µM
HCT-15 colon
  GI50: 0.496 µM
  TGI: 1.76 µM
HL-60(TB) leukemia
  GI50: 1.73 µM
  TGI: 4.19 µM
HOP-62 NSCLC
  GI50: 3.26 µM
  TGI: 14.3 µM
HOP-92 NSCLC
  GI50: 1.85 µM
  TGI: 8.82 µM
HS 578T breast
  GI50: 2.58 µM
  TGI: 10.5 µM
HT29 colon
  GI50: 1.98 µM
  TGI: 4.17 µM
IGROV1 ovarian
  GI50: 3.81 µM
  TGI: 16.1 µM
K-562 leukemia
  GI50: 2.22 µM
  TGI: 7.73 µM
KM12 colon
  GI50: 3.34 µM
  TGI: 12 µM
LOX IMVI melanoma
  GI50: 1.42 µM
  TGI: 2.77 µM
M14 melanoma
  GI50: 1.55 µM
  TGI: 3.5 µM
MALME-3M melanoma
  GI50: 1.75 µM
  TGI: 3.29 µM
MCF7 breast
  GI50: 0.373 µM
  TGI: 1.57 µM
MDA-MB-231 breast
  GI50: 2.35 µM
  TGI: 6.33 µM
MDA-MB-435
  GI50: 1.55 µM
  TGI: 4.67 µM
MDA-MB-468 breast
  GI50: 2.35 µM
  TGI: 6.87 µM
MOLT-4 leukemia
  GI50: 2.38 µM
  TGI: 6.9 µM
NCI-H226 lung
  GI50: 14 µM
  TGI: 28.1 µM
NCI-H23 lung
  GI50: 1.72 µM
  TGI: 3.32 µM
NCI-H460 lung
  GI50: 3.02 µM
  TGI: 9.9 µM
NCI-H522 lung
  GI50: 2.34 µM
  TGI: 6.63 µM
OVCAR-3 ovarian
  GI50: 2.65 µM
  TGI: 10.3 µM
OVCAR-4 ovarian
  GI50: 4.4 µM
  TGI: 20.3 µM
OVCAR-5 ovarian
  GI50: 5.19 µM
  TGI: 17.9 µM
OVCAR-8 ovarian
  GI50: 3.3 µM
  TGI: 20 µM
PC-3 prostate
  GI50: 2.63 µM
  TGI: 11.9 µM
RPMI-8226 leukemia
  GI50: 2.08 µM
  TGI: 5.48 µM
RXF 393 renal
  GI50: 3.03 µM
  TGI: 12.5 µM
SF-268 CNS
  GI50: 4.46 µM
  TGI: 18.7 µM
SF-295 CNS
  GI50: 1.46 µM
  TGI: 2.86 µM
SF-539 CNS
  GI50: 2.2 µM
  TGI: 4.89 µM
SK-MEL-28 melanoma
  GI50: 5.56 µM
  TGI: 17.8 µM
SK-MEL-5 melanoma
  GI50: 3.59 µM
  TGI: 12.8 µM
SK-OV-3 ovarian
  GI50: 3.84 µM
  TGI: 14.4 µM
SN12C renal
  GI50: 3.94 µM
  TGI: 14.6 µM
SNB-19 CNS
  GI50: 4.42 µM
  TGI: 16.3 µM
SNB-75 CNS
  GI50: 1.96 µM
  TGI: 12.4 µM
SR leukemia
  GI50: 1.34 µM
  TGI: 9.42 µM
SW-620 colon
  GI50: 2.52 µM
  TGI: 11.4 µM
T-47D breast
  GI50: 2.81 µM
  TGI: 11 µM
TK-10 renal
  GI50: 4.68 µM
  TGI: 17.3 µM
U251 CNS
  GI50: 2.69 µM
  TGI: 10.4 µM
UACC-257 melanoma
  GI50: 4.27 µM
  TGI: 15.4 µM
UACC-62 melanoma
  GI50: 9.9 µM
  TGI: 21.8 µM
UO-31 renal
  GI50: 2.96 µM
  TGI: 16.2 µM
